19 compounds from patent EP1135374B9, “BENZIMIDAZOLE COMPOUNDS THAT ARE VITRONECTIN RECEPTOR ANTAGONISTS” (SCHERING CORPORATION, priority 1998, dated 2000) can be followed below.

Test [1] deals with T1, αvβ3 receptor (purified from human placenta) (Homo sapiens, UniProt P05106+P06756).
T1 construct: αvβ3 receptor (purified from human placenta); from tissue; host or cells: human placenta
The experiment in a line: competition radioligand binding assay, 125I-echistatin to αvβ3 receptor. The following applies: αvβ3, inhibition of specific 125I-echistatin binding. How it is done: The following assay procedure, which is a competition radioligand binding assay, was carried out to determine the activity of the foregoing compounds as αvβ3 antagonists. The competitive assay procedure described in Kumar, et. al., "Biochemical Characterization Of The Binding Of Echistatin To Integrin αvβ3 Receptor", Journal Of Pharmacology And Experimental Therapeutics, Vol. 283, No. 2, pp. 843-853 (1997) was employed. Thus, binding of ^125I-echistatin (radiolabeled by the chloramine-T method to a specific activity of 2000 Ci/mmol (Amersham, Chicago, Il.)) to αvβ3 receptor (purified from human placenta), both prepared as described in Kumar, et al., was competed by the compounds prepared in the foregoing examples. Purified αvβ3 receptor was coated onto Microlite-2 plates at a concentration of 50 ng/well. ^125I-echistatin was added to the wells to a final concentration of 0.05 nM in binding buffer (50 µl/well) in the presence of the competing test compound. The competing test compounds were employed at serially diluted concentrations ranging from 1 pM to 100 nM. After a 3 hour incubation at room temperature, the wells were washed, and radioactivity, reflecting binding by ^125 I-echistatin to αvβ3 receptors, was determined with Top Count (Packard). Each data point is an average of values from triplicate wells.
Specific binding of ^125I-echistatin was calculated as the difference between the amount of ^125I-echistatin bound in the absence (total binding) and the amount of ^125I-echistatin bound in the presence of a 200-fold molar excess of unlabeled echistatin (nonspecific binding). The efficacy of the test compounds for inhibiting specific binding of ^125I-echistatin to αvβ3 receptors was determined by plotting a graph of specific binding (y-axis) as a function of test compound concentration (x-axis). The concentration of test compound required to inhibit 50% of the specific binding (IC50) was determined from the plot. The IC50 may be directly converted mathematically to Ki, which is a measure of the receptor binding affinity of the compounds under the defined assay conditions.

In the next test the target is purified αllbβ3 receptor (Homo sapiens, UniProt P05106+P08514). The experiment in a line: similar competitive binding assay with 125I-echistatin on αllbβ3 receptor, used for the specificity index. As to conditions: specificity index IC50 αllbβ3/ IC50 αvβ3; for Specificity αIIβ3 / αvβ3: Table 14. Here is the method:
To measure the relative affinity of the test compounds for αvβ3 receptors versus affinity for αllbβ3 receptors, similar competitive assays were carried out using purified αllbβ3 receptor and ^125I-echistatin (iodinated using the lactoperoxidase method). The specificity index, which is a measure of the relative binding affinity for αvβ3, versus αllbβ3, may be determined by dividing the IC50 value for αllbβ3 by the IC50 value for αvβ3.

Compound `CC(C)(C)OC(=O)N[C@@H](CNC(=O)c1ccc(CN(Cc2nc3ccccc3[nH]2)C(=O)CCc2ccccc2)cc1)C(=O)O` [Example 5-63] had an IC50 in test [1] (Table 12) of 20 nM. The “Specificity αllbβ3 / αvβ3” value on purified αllbβ3 receptor (Table 12) is reported as 293.

Compound `O=C(N[C@@H](CNC(=O)c1ccc(CN(Cc2nc3ccccc3[nH]2)C(=O)NC23CC4CC(CC(C4)C2)C3)cc1)C(=O)O)OCc1ccccc1` [Example 5-40] gave a half-inhibitory concentration (IC50) in test [1] (Table 10) of 5.7 nM. On purified αllbβ3 receptor (Table 10), the “SPECIFICITY αIIbβ3 / αvβ3” value turned out to be 288.

In test [1] (Table 14), `CC(=O)N(CCc1nc2ccccc2[nH]1)Cc1ccc(C(=O)NCC(NC(=O)OCc2ccccc2)C(=O)O)cc1` (centres unmarked) [Example 5-71] displayed an IC50 of 266 nM. Also, the “Specificity αIIβ3 / αvβ3” value on purified αllbβ3 receptor is given as 0.3.

In turn, `O=C(N[C@@H](CNC(=O)c1ccc(CN(Cc2nc3ccccc3[nH]2)C(=O)Nc2cccc3ccccc23)cc1)C(=O)O)OCc1ccccc1` [Example 5-37] had an IC50 in test [1] (Table 10) of 5.3 nM. Further, the “SPECIFICITY αIIbβ3 / αvβ3” value at purified αllbβ3 receptor (Table 10) was found to be 203.

As for `CC(=O)OC(C(=O)N(Cc1ccc(C(=O)NC[C@H](NC(=O)OCc2ccccc2)C(=O)O)cc1)Cc1nc2ccccc2[nH]1)c1ccccc1` (some centres unmarked) [Example 5-18], the IC50 in test [1] (Table 10) is 4.4 nM. Further, at purified αllbβ3 receptor (Table 10), the “SPECIFICITY αIIbβ3 / αvβ3” value stood at 82.

Regarding `CC(c1nc2ccccc2[nH]1)N(Cc1ccc(C(=O)NC[C@H](NC(=O)OCc2ccccc2)C(=O)O)cc1)C(=O)CCc1ccccc1` (some centres unmarked) [Example 5-78], in test [1] (Table 15), the IC50 came out at 21 nM. Besides, on purified αllbβ3 receptor (Table 15), the “SPECIFICITY αIIbβ3 / αvβ3” value is listed as 33.9.

In test [1] (Table 10), `CCOC(=O)[C@H](C)NC(=O)N(Cc1ccc(C(=O)NC[C@H](NC(=O)OCc2ccccc2)C(=O)O)cc1)Cc1nc2ccccc2[nH]1` [Example 5-50] registered an IC50 of 3 nM. On purified αllbβ3 receptor (Table 10), the “SPECIFICITY αIIbβ3 / αvβ3” value is reported as 805.

`O=C(N[C@@H](CNC(=O)c1ccc(CN(Cc2nc3ccccc3[nH]2)C(=O)Nc2ccc(F)cc2)cc1)C(=O)O)OCc1ccccc1` [Example 5-49] yielded a concentration for half-maximal inhibition (IC50) in test [1] (Table 10) of 4.2 nM. Moreover, the “SPECIFICITY αIIbβ3 / αvβ3” value on purified αllbβ3 receptor (Table 10) worked out at 504.

In test [1] (Table 16), `CCCCOC(=O)N[C@@H](CNC(=O)c1ccc(CN(Cc2nc3ccccc3[nH]2)C(=O)NC(C)C)cc1)C(=O)O` [Example 5-84] registered an IC50 of 3.6 nM. For the same compound, the “Specificity αllbβ3 / αvβ3” value at purified αllbβ3 receptor (Table 16) turned out to be 712.

The compound `O=C(N[C@@H](CNC(=O)c1ccc(CN(Cc2nc3ccccc3[nH]2)C(=O)NC2CCCCC2)cc1)C(=O)O)OCc1ccccc1` [Example 5-28] had an IC50 in test [1] (Table 10) of 0.65 nM. Moreover, the “SPECIFICITY αIIbβ3 / αvβ3” value at purified αllbβ3 receptor (Table 10) turned out to be 1136.

The compound `COCC(=O)N(Cc1ccc(C(=O)NC[C@H](NC(=O)OC(C)(C)C)C(=O)O)cc1)Cc1nc2ccccc2[nH]1` [Example 5-62] returned an IC50 in test [1] (Table 12) of 30 nM. Further, the “Specificity αllbβ3 / αvβ3” value on purified αllbβ3 receptor (Table 12) is given as 419.

For `CCOC(=O)[C@@H](NC(=O)N(Cc1ccc(C(=O)NC[C@H](NC(=O)OCc2ccccc2)C(=O)O)cc1)Cc1nc2ccccc2[nH]1)C(C)C` [Example 5-51], the IC50 in test [1] (Table 10) was determined as 1.1 nM. For the same compound, the “SPECIFICITY αIIbβ3 / αvβ3” value on purified αllbβ3 receptor (Table 10) is on record as 1210.

In turn, `O=C(NC(CNC(=O)c1ccc(CNCCc2nc3ccccc3[nH]2)cc1)C(=O)O)OCc1ccccc1` (centres unmarked) [Example 5-70] returned an IC50 in test [1] (Table 14) of 413 nM. For the same compound, the “Specificity αIIβ3 / αvβ3” value at purified αllbβ3 receptor is given as 0.2.

`CCCCOC(=O)N[C@@H](CNC(=O)c1ccc(CN(Cc2nc3ccccc3[nH]2)C(=O)N[C@@H](C)C(=O)OCC)cc1)C(=O)O` [Example 5-89]: the IC50 in test [1] (Table 16) is 3.3 nM. Also, on purified αllbβ3 receptor (Table 16), the “Specificity αllbβ3 / αvβ3” value is recorded as 1094.

Compound `COCC(=O)N(CCc1nc2ccccc2[nH]1)Cc1ccc(C(=O)NCC(NC(=O)OCc2ccccc2)C(=O)O)cc1` (centres unmarked) [Example 5-72] yielded a half-inhibitory concentration (IC50) in test [1] (Table 14) of 559 nM. The “Specificity αIIβ3 / αvβ3” value at purified αllbβ3 receptor was found to be 0.5.

For the compound `COCC(=O)N(Cc1ccc(C(=O)NC(CC(=O)O)c2ccccc2)cc1)Cc1nc2ccccc2[nH]1` (centres unmarked) [Example 5-67], in test [1] (Table 13), the IC50 is 7370 nM. Moreover, on purified αllbβ3 receptor (Table 13), the “Specificity α11bβ3 / αvβ3” value is listed as 0.5.

`O=C(N[C@@H](CNC(=O)c1ccc(CN(Cc2nc3ccccc3[nH]2)C(=O)NCc2ccccc2)cc1)C(=O)O)OCc1ccccc1` [Example 5-29]: the IC50 in test [1] (Table 10) came out at 4.3 nM. Also, the “SPECIFICITY αIIbβ3 / αvβ3” value on purified αllbβ3 receptor (Table 10) stood at 144.

In test [1] (Table 16), `CCCCOC(=O)N[C@@H](CNC(=O)c1ccc(CN(Cc2nc3ccccc3[nH]2)C(=O)N[C@@H](CCSC)C(=O)OCC)cc1)C(=O)O` [Example 5-87] came in with an IC50 of 2 nM. Moreover, on purified αllbβ3 receptor (Table 16), the “Specificity αllbβ3 / αvβ3” value was 1569.

The compound `CCOC(=O)N(Cc1ccc(C(=O)NC[C@H](NC(=O)OCc2ccccc2)C(=O)O)cc1)Cc1nc2ccccc2[nH]1` [Example 5-20] registered an IC50 in test [1] (Table 10) of 7.2 nM. For the same compound, the “SPECIFICITY αIIbβ3 / αvβ3” value on purified αllbβ3 receptor (Table 10) is reported as 15.

In general, IC50 refers to the concentration at which inhibition is half-maximal.
